Values quoted from earlier work, collected in patent publication US20200030253A1, “Methods and compositions for treatment of body conditions” (priority 2018, published 2020).

Settings: octanol-water

C=C(C)[C@@H]1CCC(C)=C[C@H]1c1c(O)cc(CCCCC)cc1O [Cannabidiol]
Koctanol-water (lipophilicity): 6-7
